The values below come from patent publication US20190167676A1, “METHODS FOR IMPROVING RESISTANCE TO SKELETAL MUSCLE FATIGUE” (Cytokinetics, Inc., priority 2012, published 2019).

Assay [1] relates to healthy female rats. Kind of assay: Cage grid hang time. Format: in vivo, rat. The protocol: Static fatigue in conscious rats was assessed by measuring the length of time that healthy female rats would hang upside down from a cage grid. Rats were trained to hang upside-down from a cage grid and the time to drop to soft padding below was recorded. Baseline hang-times were recorded for each animal (n=24) for a two week period of time. The rats were then treated with Compound A (200 ppm) in chow for two weeks while hang times were monitored daily. Finally, the rats were withdrawn from Compound A in their chow for five days while hang times were recorded daily.

The test system of assay [2] is patients with peripheral artery disease and claudication. Nature of the assay: 6-Minute Walk Test, Phase II study. Format: in vivo, human. Conditions: single doses 375, 500, 750 mg; 4 hours after dosing. An excerpt: This study was a double-blind, randomized, placebo-controlled, three-period cross-over, hypothesis generating Phase II study in patients with peripheral artery disease and claudication. […] Secondary objectives included (a) evaluation and characterization of the relationship, if any, between the doses and plasma concentrations of Compound A and its pharmacodynamic effects, and (b) evaluation of the safety and tolerability of Compound A administered as single doses.
Assessments include 1) Bilateral Heel Raise Test (as described below) using electrogoniometry at 3 and 6 hours after dosing, and 2) 6-Minute Walk Test at 4 hours after dosing. Results were analyzed using a repeated-measures ANCOVA with treatment, sequence, period, baseline, and patient in the model. In the event of model assumption violations, non-parametric methods were utilized

Assay [3] concerns skinned fast skeletal muscle fibers from rabbit psoas muscle. The conditions noted are these: cited from earlier work.
[4] abbreviates: 200 ppm in chow, average final three days of two week dosing.
[5] abbreviates: after withdrawal, average final three days of five day period.

Take `C#Cc1cnc2nc(O)n(C(CC)CC)c2n1` [Compound A, 6-ethynyl-1-(pentan-3-yl)-1H-imidazo[4,5-b]pyrazin-2-ol]: in assay [1] (setting [4]), the grid hang time was 899 ± 157 s and the “grid hang time compared to baseline” value was 160±18%. In addition, in assay [1] (setting [5]), the grid hang time came out at 698 ± 122 s and the “grid hang time, normalized performance” value came out at 124±12%. In assay [2], the “distance traversed during 6-Minute Walk Test” value is “dose and concentration dependent decrease”. Also, the force-calcium relationship entry in assay [3] was “leftward-shift of the force-calcium relationship”.
